From US8778971B2, “Medicinal treatment of dermal diseases in companion animals” (Bridge Pharma, Inc., priority 2012, dated 2014)
Marks after values point to notes of the source that are not given here.

Legend:
[1] = test system: mice; experiment: Sedative effects in mice, physostigmine lethality test; details: for Sedated animals: mice
Experimental: In short, physostigmine (1.0 mg/kg to 2.0 mg/kg, s.c.) generally results in 100% lethality when given to groups of mice (10 mice/group) transferred into a small volume of space. Mice administered a sedating drug prior to the physostigmine injection are protected from the stress and survive. In the present study, test compounds were given orally 60 minutes prior to physostigmine injection. The number of surviving (sedated) mice was counted 30 minutes after injection of the physostigmine dose.

[2] = test system: human leukocytes (buffy coat); experiment: Inhibition of A23187-stimulated histamine release from leukocytes; type: cell-based; details: for IC50: Homo sapiens, Leukocyte, 20 min, A23187 5 μM, 20 min/37° C., read-out: Inhibition of inflammatory mediator (histamine) release
Experimental: In these studies, histamine was the marker compound for inflammatory mediators that are released from mast cells and other pro-inflammatory cells in patients with atopic inflammatory diseases. The inhibition of stimulated histamine release from human leukocytes (buffy coat) by test articles was studied. Leukocytes were obtained from healthy volunteers and histamine release was induced by incubation (20 min/37° C.) with the calcium ionophore A23187 (5 μM) in the presence or absence of a test article. Histamine was analyzed by enzyme-immune assays, using commercially available kits and a microplate reader (MRX, Dynatech). The test articles were evaluated, in duplicate, at five concentrations.

[3] = test system: dogs; experiment: Sedative effects in dogs, cross-over oral dosing; type: in vivo; details: for Frequency of sedation: 20 mg/kg/day oral; for Sedation in dogs (in words): oral
Experimental: Sedation studies in dogs were performed according to a cross-over protocol, where the dogs were administered once daily the test articles orally at a dose of 20 mg/kg bodyweight that in a previous toxicology study was marginally toxic in dogs with equal plasma concentrations of R-norketotifen and S-norketotifen.
The test articles were administered in gelatin capsules and vehicle-capsules were empty. All dogs were healthy beagles (four males and two females), age 24-36 months, weighing 7.8-10.6 kg. The dogs were dosed at 9-10 AM and had been fasted overnight before dosing. There was a washout period of at least three days in all dogs between the tests. All assessments of sedation/sleepiness were made by a qualified (D.V.M.) scientist with extensive experience (>15 years) in studies with conscious laboratory dogs. The test articles were in the form of hydrogen fumarate salts.
It had previously been observed that dogs rarely express sedation in response to oral administration of benzocycloheptathiophene compounds on the first day of dosing and the dogs were therefore administered the test articles for three consecutive days.

[4] = test system: croton oil-treated ears; experiment: Croton oil ear inflammation, systemic (ip) administration; type: in vivo; details: mice, 10 mg/kg ip
Experimental: In order to investigate the effects of systemic administration of the test compounds in dermal inflammation, a croton oil model was used as is known in the art. This test consists of topical application of 20 μl of 1.0% croton oil to each ear of male mice, weighing 28-32 g. […] Application of the croton oil results in an inflammatory response. The weight of croton oil-treated ears was determined and the percent increase in ear weight is calculated. Test articles were dosed systemically (ip). […] All results represent mean ear weights (±S.E.M.) from 10 ears.

[5] = test system: rats; experiment: Acute toxicity, Up-and-Down Procedure; type: in vivo; details: RAT, hydrogen fumarate salts
Experimental: Acute toxicological studies were performed in rats (Sprague-Dawley; M and F; 200-250 grams). The animal-sparing Up-and-Down Procedure (FDA, OECD) was used. Both oral and intravenous toxicity tests were performed.
Both compounds were administered as hydrogen fumarate salts.

[6] = test system: histamine-induced wheal response; experiment: Antihistaminic activity in vivo, intradermal histamine wheal; design: species or system rats; details: rat; for Histamine wheal area: 60 min before histamine; for Saline wheal area: histamine vehicle injection; for Histamine effect: histamine minus saline
Experimental: Male rats (150-200 g) were fasted overnight and twelve hours after dorsal depilation, the animals were orally pretreated with the test compound(s). Four dorsal test areas were marked with permanent ink, carefully avoiding the area closest to the spine. […] Two intradermal injections of the vehicle for the histamine solution were also performed. […] Twenty minutes were allowed for the wheal response to fully develop, whereupon the animals were euthanized and the dorsal skin with the intradermal wheals were deflected. The blue spotted areas were measured in square millimeters and the duplicate wheal areas were averaged. […] The inhibition was calculated in percent difference from said baseline values.

[7] = Solubility of norketotifen in non-aqueous solvents; type: physicochemical
Experimental: The hydrophobic ointment was prepared by dissolving norketotifen in propylene glycol. […] Next, glyceryl stearate, cetyl alcohol, and white petrolatum were added to a suitable container and heated to 65-70° C. This heating step melts the surfactants and the petrolatum. Next, norketotifen solution was slowly added and the composition mixed until the solvent was dispersed. Finally, the composition was cooled with mixing to allow the ointment to thicken.

[8] = test system: Candida albicans; experiment: Antimicrobial test, plate count; type: cell-based; details: 0.035% norketotifen, within 7 days, from 500,000
Experimental: (§1) Studies were performed to evaluate possible antimicrobial activities of norketotifen at various concentrations and various pHs. […]. The standard microbial solutions of norketotifen contained the following excipients: Sodium citrate (0.3%), propylene glycol (1.75%), methylparaben (0.03%), propylparaben (0.01%), sterile water (as diluent).
(§2) The microorganisms were inoculated into 50 mL centrifuge tubes containing 10 mL of test sample at T=0. One (1) mL was aliquoted from each centrifuge tube for each of the following 4 weeks (except at 21 days). The log reduction was determined by the plate count method after 7, 14 and 28 days by diluting in DEB (D/E neutralizing Broth) from 10^−1 to 10^−4 for bacteria. Bacterial plates were poured with SCDA (Soybean Casein Digest Agar) and incubated at 32.5±2.5° C. for 3-5 days

[9] = test system: Staphylococcus aureus; experiment: Antimicrobial test, plate count; type: cell-based; details: 0.035% norketotifen, within 7 days, from 750,000
Experimental: as §1, §2

[10] = test system: histamine-induced pruritus; experiment: Histamine-induced pruritus, topical cream; type: in vivo; details: mice, 1.0% cream topical 60 min before histamine
Experimental: Antipruritic effects were tested in vivo in CD-1 female mice aged 10-12 weeks, according to methods known in the art. The hair was clipped over the rostral part of the back at the interscapular level of the mice one day before dosing. Before testing, the mice were placed in individual clear plastic cages for at least one hour for acclimation. […] Lanolin was weighed and liquified by submerging the vessel containing lanolin in hot water. While the lanolin was liquid, it was rapidly nixed (by vortexing) with the 2.5% norketotifen solution in ethanol, resulting in a 1.0% solution. […] A cream containing 60% lanolin/40% ethanol served as control.

[11] = test system: Malassezia pachydermatis; experiment: Antimicrobial test, Malassezia study; type: cell-based; details: after 24 hours
Experimental: The test article (norketotifen) was weighed and diluted into PBS to final concentrations of 0.210% and 0.035% before use. A 5 mL volume of the Test Article was aliquoted to a sterile 15 mL tube and the Malassezia sp (for example M. pachydermatis) were added at target concentrations of approx. 1.0×10^6 CFU/mL. The resulting mixture was vortexed thoroughly and incubated at room temperature for 7 days. A 0.500 mL aliquot of control and test tubes were harvested in 9.5 mL of D/E broth and any surviving test microorganisms were enumerated per standard dilution and plating techniques. Reductions were compared to a PBS Control at Time Zero and replicate tests were performed.

[12] = test system: croton oil-treated ears; experiment: Modified croton oil ear inflammation, topical cream; type: in vivo; details: mice, 1.0% cream topical
Experimental: In order to investigate the effects of topical administration of the test compounds in dermal inflammation, a modified croton oil model was used. […] The cream was then removed and a solution of 1% croton oil in 20 μl acetone was applied to both ears. […] Cream was wiped from the ears and ears were removed and weighed. […] All results represent mean ear weights (±S.E.M.) from 8 ears.

[13] = target: histamine H1-receptors (Homo sapiens, UniProt P35367); experiment: H1 receptor binding, [3H]pyrilamine ligand; details: human recombinant receptors, read-out: H-1/IC50
Experimental: H1 receptor binding studies were conducted utilizing human recombinant receptors. In the studies shown herein, affinities of the test compounds for histamine H1-receptors were assessed using a binding assay, where [^3H]pyrilamine was used as the ligand and the test compounds were used at increasing concentrations. The specific binding of the radioactive ligand to the receptor was defined as the difference between total binding and nonspecific binding, determined in the presence of excess unlabeled ligand.

[14] = oral 10 mg/kg, versus vehicle baseline

histamine H1-receptors, sequence (P35367 whole entry): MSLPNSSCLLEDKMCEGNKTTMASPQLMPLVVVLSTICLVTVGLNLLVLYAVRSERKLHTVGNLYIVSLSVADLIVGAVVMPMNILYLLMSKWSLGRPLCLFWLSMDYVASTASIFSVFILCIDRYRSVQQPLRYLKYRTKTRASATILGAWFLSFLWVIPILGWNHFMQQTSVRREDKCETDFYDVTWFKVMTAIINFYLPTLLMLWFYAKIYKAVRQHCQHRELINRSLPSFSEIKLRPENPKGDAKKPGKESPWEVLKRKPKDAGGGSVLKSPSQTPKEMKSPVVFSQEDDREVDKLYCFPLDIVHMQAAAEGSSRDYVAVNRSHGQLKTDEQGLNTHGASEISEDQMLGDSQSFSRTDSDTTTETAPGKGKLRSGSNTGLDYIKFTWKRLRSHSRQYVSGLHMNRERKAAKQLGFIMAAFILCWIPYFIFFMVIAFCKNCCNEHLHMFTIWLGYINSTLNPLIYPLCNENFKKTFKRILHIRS

Q: What does the source list for O=C1Cc2ccccc2C(=C2CCNCC2)c2ccsc21 [S-NORKETOTIFEN]?
A: Sedated animals ([1]; oral dose 100 mg/kg, 100 mg/kg): 0/10; Sedated animals ([1]; oral dose 150 mg/kg, 150 mg/kg): 0/10

Q: With CCOC(=O)N1CCC(=C2c3ccc(Cl)cc3CCc3cccnc32)CC1 [LORATADINE] as the molecule, how does the Sedated animals ([1]; oral dose 150 mg/kg) read?
A: 1/10

Q: With OCCOCCN1CCN(C(c2ccccc2)c2ccc(Cl)cc2)CC1 (centres unmarked) [HYDROXYZINE] as the molecule, how does the Sedated animals ([1]; oral dose 100 mg/kg) read?
A: 9/10

Q: Which Sedated animals ([1]; oral dose 25 mg/kg) does the source give for CN1CCC(=C2c3ccccc3CC(=O)c3sccc32)CC1 [Ketotifen, 4-(1-methyl-4-piperidyline)-4H-benzo(4,5)-cyclohepta-(1,2-b) thiophene-10-one, reference compound] here?
A: 5/10

Q: And the Sedated animals ([1]; oral dose 50 mg/kg)?
A: 8/10

Q: And the Sedated animals ([1]; oral dose 100 mg/kg)?
A: 10/10

Q: What about the IC50 [2] of the same molecule?
A: 91 µM

Q: And the Frequency of sedation ([3]; DAY 1)?
A: 0/6

Q: And the Frequency of sedation ([3]; DAY 2)?
A: 5/6

Q: And the Frequency of sedation ([3]; DAY 3)?
A: 5/6

Q: And the “Sedation in dogs (in words)” value [3]?
A: causes sedation in dogs

Q: What about the “Average Ear weight ±SEM” value ([4]; 90 min) of the same molecule?
A: 37 ± 1 mg

Q: And the “Average Ear weight ±SEM” value ([4]; 120 min)?
A: 42 ± 1 mg

Q: What about the “Acute toxicity (estimated LD50)” value ([5]; intravenous) of the same molecule?
A: 5 to 10 mg/kg

Q: What about the “Acute toxicity (estimated LD50)” value ([5]; oral) of the same molecule?
A: <300 mg/kg

Q: Which Sedated animals ([1]; oral dose 100 mg/kg) does the source give for COc1ccc(CN(CCN(C)C)c2ccccn2)cc1 [PYRILAMINE] here?
A: 8/10

Q: Which Sedated animals ([1]; oral dose 150 mg/kg) does the source give for Clc1ccc2c(c1)CCc1cccnc1C2=C1CCNCC1 [DESLORATADINE] here?
A: 0/10

Q: Which results are given for O=C1Cc2ccccc2C(=C2CCNCC2)c2ccsc21 [R-NORKETOTIFEN]?
A: Sedated animals ([1]; oral dose 100 mg/kg, 100 mg/kg): 3/10; Sedated animals ([1]; oral dose 150 mg/kg, 150 mg/kg): 3/10

Q: With CC(C)(C)c1ccc(C(O)CCCN2CCC(C(O)(c3ccccc3)c3ccccc3)CC2)cc1 (centres unmarked) [TERFENADINE] as the molecule, how does the Sedated animals ([1]; oral dose 150 mg/kg) read?
A: 0/10

Q: For CN(C)CCOC(c1ccccc1)c1ccccc1 [DIPHENHYDRAMINE], which Sedated animals ([1]; oral dose 50 mg/kg) is on record?
A: 5/10

Q: What about the Sedated animals ([1]; oral dose 100 mg/kg) of the same molecule?
A: 8/10

Q: What about the inhibition at 10 mg/kg [6, 14] of the same molecule?
A: 31%

Q: What does the source list for O=C1Cc2ccccc2C(=C2CCNCC2)c2ccsc21 (racemic) [Norketotifen, (RS)-4-(piperidylidene)-9,10-dihydro-4H-benzo-(4,5)-cyclohepta-(1,2-b) thiophene-10-one]?
A: Sedated animals ([1]; oral dose 83 mg/kg): 3/10; Sedated animals ([1]; oral dose 100 mg/kg): 3/10; Sedated animals ([1]; oral dose 150 mg/kg): 3/10; Sedated animals ([1]; oral dose 180 mg/kg): 6/10; Sedation in mice (in words) ([1]; physostigmine lethality test): expressed sedative activity; Histamine wheal area ([6]; oral 1.0 mg/kg): 114 ± 8 mm^2; Saline wheal area ([6]; oral 1.0 mg/kg): 22 ± 1 mm^2; Histamine effect ([6]; oral 1.0 mg/kg): 92 mm^2; inhibition at 1 mg/kg ([6]; oral 1.0 mg/kg, versus vehicle baseline): 2%; Histamine wheal area ([6]; oral 10 mg/kg): 39 ± 2 mm^2; Saline wheal area ([6]; oral 10 mg/kg): 22 ± 1 mm^2; Histamine effect ([6]; oral 10 mg/kg): 17 mm^2; inhibition at 10 mg/kg [6, 14]: 82%; Histamine wheal area ([6]; oral 50 mg/kg): 10 ± 1 mm^2; Saline wheal area ([6]; oral 50 mg/kg): 12 ± 1 mm^2; Histamine effect ([6]; oral 50 mg/kg): 0 mm^2; inhibition at 50 mg/kg ([6]; oral 50 mg/kg, versus vehicle baseline): 100%; Solubility ([7]; formulation G1009, mixture of two polyethylene glycols): about 1.0%; Solubility ([7]; in propylene glycol): about 1.0%; Candida albicans count after incubation [8]: 500 cells; Staphylococcus aureus count after incubation [9]: 90,000; Bouts as % of Vehicle Controls [10]: 42 ** %; Bouts/40 min [10]: 61 ± 4; Bouts as % of Vehicle Controls ([10]; listed as RS-norketotifen): 42%; IC50 [2]: 9.2 µM; Times more potent than ketotifen as inhibitor of histamine release ([2]; pro-inflammatory cells): approximately 10 times; Reduction of Malassezia pachydermatis ([11]; 0.035% norketotifen): 99.8%; Reduction of Malassezia pachydermatis ([11]; 0.2% norketotifen): 99.995%; Average Ear Weight ±S.E.M ([12]; 0 (predose) min after croton oil): 36 ± 1 mg; Average Ear Weight ±S.E.M ([12]; 30 min after croton oil): 36 ± 1 mg; Average Ear Weight ±S.E.M ([12]; 60 min after croton oil): 37 ± 2 mg; Average Ear Weight ±S.E.M ([12]; 90 min after croton oil): 36 ± 2 mg; IC50 [13]: 0.011 µM; Frequency of sedation ([3]; DAY 1): 0/6; Frequency of sedation ([3]; DAY 2): 0/6; Frequency of sedation ([3]; DAY 3): 0/6; Sedation in dogs (in words) [3]: did not cause sedation in dogs; Average Ear weight ±SEM ([4]; 90 min): 34 ± 1 mg; Average Ear weight ±SEM ([4]; 120 min): 40 ± 1 mg; Acute toxicity (estimated LD50) ([5]; intravenous): 10 to 15 mg/kg; Acute toxicity (estimated LD50) ([5]; oral): 1500 to 2000 mg/kg
